# Reference: patent US10709709B2, “Substituted carbonucleoside derivatives useful as anticancer agents” (Pfizer Inc., priority 2016, dated 2020)
# Biological target: PRMT5/MEP50 protein complex (Homo sapiens (Human), UniProt O14744)
# Assay: PRMT5 biochemical assay (3H-SAM methylation of H4(1-21) peptide, filter plate scintillation)
# Details: 10 nM PRMT5/MEP50 complex, 200 nM H4(1-21) peptide, 1 uM SAM, 25 minute incubation at room temperature
# Procedure: Biochemical Assay Methods
# Compounds were solubilized in DMSO and serially diluted, using 3-fold dilutions, into 100% DMSO at a concentration 50-fold greater than the desired assay concentration. Following dilution, 1 ul was added to an empty 96-well microtiter plate. PRMT5/MEP50 protein complex was combined with H4(1-21) peptide ([…]) in PRMT5 assay buffer (50 mM Tris pH 8.5, 50 mM NaCl, 5 mM MgCl2, 1 mM EDTA, 1 mM TCEP) and 44 ul was added to the microtiter plate containing compound. S-Adenosyl-L-methionine (SAM) was prepared by combining ^3H labelled SAM with unlabelled SAM in PRMT5 assay buffer such that the final SAM concentration was 10 uM and the specific activity was 0.2 uCi/ul. The reaction was initiated by adding 5 ul of SAM stock to the microtiter plate. The final reaction conditions were 10 nM PRMT5/MEP50 complex, 200 nM peptide and 1 uM SAM. Following a 25 minute incubation at room temperature, the reaction was stopped with the addition of 100 uL of 20% TCA. The 3H-peptide product was captured using a 96-well filter plate (MSIPN4B, Millipore) and washed 5 times with PBS buffer. Scintillation fluid (100 ul) was added to the dried filter plate and counted in a liquid scintillation counter. IC50 values were determined by fitting the data to the standard 4-parameter dose response equation using Pfizer proprietary software.
# Results for the biochemical assay of examples are summarized in Table 1, shown as IC50 values in μM.
# Sequence of PRMT5/MEP50 protein complex (O14744 other isoform, or with tags, fused parts or gaps): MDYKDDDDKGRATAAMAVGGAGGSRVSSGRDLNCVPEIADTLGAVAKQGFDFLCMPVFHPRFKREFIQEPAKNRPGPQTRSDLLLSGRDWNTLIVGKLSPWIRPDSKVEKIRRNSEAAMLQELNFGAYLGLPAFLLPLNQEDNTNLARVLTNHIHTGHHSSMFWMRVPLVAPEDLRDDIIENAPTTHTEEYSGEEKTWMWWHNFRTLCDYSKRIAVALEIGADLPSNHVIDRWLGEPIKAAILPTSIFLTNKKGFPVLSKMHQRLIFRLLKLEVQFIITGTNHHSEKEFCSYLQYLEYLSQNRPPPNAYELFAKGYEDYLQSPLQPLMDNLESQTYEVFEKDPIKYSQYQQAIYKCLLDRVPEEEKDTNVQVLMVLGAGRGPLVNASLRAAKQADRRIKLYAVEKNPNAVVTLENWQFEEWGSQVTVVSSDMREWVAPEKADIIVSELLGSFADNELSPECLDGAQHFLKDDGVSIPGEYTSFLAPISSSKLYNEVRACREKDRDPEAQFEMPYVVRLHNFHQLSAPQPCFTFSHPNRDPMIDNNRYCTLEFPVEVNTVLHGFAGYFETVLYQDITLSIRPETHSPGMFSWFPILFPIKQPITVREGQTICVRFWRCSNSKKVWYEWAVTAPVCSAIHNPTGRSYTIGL
# Sequence of PRMT5/MEP50 protein complex (Q9BQA1 whole entry partner): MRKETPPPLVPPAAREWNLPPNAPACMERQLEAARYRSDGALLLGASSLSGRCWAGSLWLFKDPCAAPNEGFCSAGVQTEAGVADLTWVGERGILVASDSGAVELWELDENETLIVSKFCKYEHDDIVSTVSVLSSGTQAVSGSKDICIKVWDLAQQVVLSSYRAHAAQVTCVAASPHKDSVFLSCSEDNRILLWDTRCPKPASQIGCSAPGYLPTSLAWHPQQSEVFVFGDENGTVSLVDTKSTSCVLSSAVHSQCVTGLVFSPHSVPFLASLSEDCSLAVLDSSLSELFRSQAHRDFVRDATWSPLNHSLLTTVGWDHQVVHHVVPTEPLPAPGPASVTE
row,SMILES,IC50
1,"Nc1ncnc2c1c(F)cn2[C@@H]1C[C@H](Oc2cccc3c2CNC3)[C@@H](O)[C@H]1O [Example 110, (1S,2S,3R,5S)-3-(4-amino-5-fluoro-7H-pyrrolo[2,3-d]pyrimidin-7-yl)-5-(2,3-dihydro-1H-isoindol-4-yloxy)cyclopentane-1,2-diol]",8 nM
2,"Cc1ncnc2c1ccn2[C@@H]1C[C@H](Oc2ccc(F)cc2[C@@H](C)N)[C@@H](O)[C@H]1O [Example 137, (1S,2S,3S,5R)-3-(2-((R)-1-aminoethyl)-4-fluorophenoxy)-5-(4-methyl-7H-pyrrolo[2,3-d]pyrimidin-7-yl)cyclopentane-1,2-diol]",123 nM
3,"CO[C@H]1C[C@@H](n2ccc3c(C)ncnc32)[C@H](O)[C@@H]1O (racemic) [Example 59, (+/−)-(1S,2S,3S,5R)-3-methoxy-5-(4-methyl-7H-pyrrolo[2,3-d]pyrimidin-7-yl)cyclopentane-1,2-diol]",5740 nM
4,"Cc1ncnc2c1ccn2[C@@H]1C[C@H](Oc2cccc3c2CN(C)C3)[C@@H](O)[C@H]1O [Example 82, (1S,2S,3S,5R)-3-[(2-methyl-2,3-dihydro-1H-isoindol-4-yl)oxy]-5-(4-methyl-7H-pyrrolo[2,3-d]pyrimidin-7-yl)cyclopentane-1,2-diol]",991 nM
5,"Nc1ncnc2c1ccn2[C@@H]1C[C@H]([C@@H](O)c2ccc(Cl)c(F)c2)[C@@H](O)[C@H]1O [Example 24, (1R,2S,3R,5R)-3-(4-amino-7H-pyrrolo[2,3-d]pyrimidin-7-yl)-5-((R)-(4-chloro-3-fluorophenyl)(hydroxy)methyl)cyclopentane-1,2-diol]",71 nM
6,"Cc1ncnc2c1ccn2[C@@H]1C[C@H](Oc2cccc3c2CNC(C)C3)[C@@H](O)[C@H]1O (single isomer, unassigned) [Example 185]",6 nM
7,"Cc1ncnc2c1ccn2[C@@H]1C[C@H]([C@@H](O)c2ccc(F)cc2)[C@@H](O)[C@H]1O [Example 10, (1S,2R,3R,5R)-3-[(R)-(4-fluorophenyl) (hydroxy)methyl]-5-(4-methyl-7H-pyrrolo[2,3-d]pyrimidin-7-yl)cyclopentane-1,2-diol]",941 nM
8,"Cc1ncnc2c1ccn2[C@H]1C[C@@H](Oc2ccccc2C#N)[C@H](O)[C@@H]1O [Example 65, 2-(((1R,2R,3R,4S)-2,3-dihydroxy-4-(4-methyl-7H-pyrrolo[2,3-d]pyrimidin-7-yl)cyclopentyl)oxy)benzonitrile]",> 200000 nM
9,"Cc1ncnc2c1ccn2[C@@H]1C[C@H](Oc2c(F)cccc2F)[C@@H](O)[C@H]1O [Example 74, (1S,2S,3S,5R)-3-(2,6-difluorophenoxy)-5-(4-methyl-7H-pyrrolo[2,3-d]pyrimidin-7-yl)cyclopentane-1,2-diol]",63300 nM
10,"Cc1ncnc2c1ccn2[C@@H]1C[C@H](Oc2ccc(F)cc2)[C@@H](O)[C@H]1O [Example 73, (1S,2S,3S,5R)-3-(4-fluorophenoxy)-5-(4-methyl-7H-pyrrolo[2,3-d]pyrimidin-7-yl)cyclopentane-1,2-diol]",6880 nM
11,"Cc1ncnc2c1ccn2[C@@H]1C[C@H](Oc2cccc3c2CC(N)CO3)[C@@H](O)[C@H]1O (single isomer, unassigned) [Example 189]",604 nM
12,"Cc1ncnc2c1ccn2[C@@H]1C[C@H](Oc2ccccc2C#N)[C@@H](O)[C@H]1O [Example 64, 2-(((1S,2S,3S,4R)-2,3-dihydroxy-4-(4-methyl-7H-pyrrolo[2,3-d]pyrimidin-7-yl)cyclopentyl)oxy)benzonitrile]",> 200000 nM
13,"Cc1ncc(O[C@H]2C[C@@H](n3ccc4c(C)ncnc43)[C@H](O)[C@@H]2O)c2c1CCNC2 [Example 96, (1S,2S,3S,5R)-3-((1-methyl-5,6,7,8-tetrahydro-2,6-naphthyridin-4-yl)oxy)-5-(4-methyl-7H-pyrrolo[2,3-d]pyrimidin-7-yl)cyclopentane-1,2-diol]",19 nM
14,"Cc1ncnc2c1ccn2[C@@H]1C[C@H]([C@@H](O)c2ccc(F)c(Cl)c2)[C@@H](O)[C@H]1O [Example 6, (1S,2R,3R,5R)-3-[(R)-(3-chloro-4-fluorophenyl) (hydroxy)methyl]-5-(4-methyl-7H-pyrrolo[2,3-d]pyrimidin-7-yl)cyclopentane-1,2-diol]",423 nM
15,"Cc1nccc(N(C)[C@@H]2C[C@H]([C@@H](O)c3ccc(F)c(F)c3)[C@@H](O)[C@H]2O)n1 [Example 36, (1S,2R,3R,5R)-3-[(R)-(3,4-difluorophenyl)(hydroxy)methyl]-5-[methyl(2-methylpyrimidin-4-yl)amino] cyclopentane-1,2-diol]",2700 nM

# Results, then the compound that gave them:
row,IC50,SMILES
1,4 nM,"Cc1ncnc2c1ccn2[C@@H]1C[C@H](Oc2nccc3c2CNCC3)[C@@H](O)[C@H]1O [Example 157, (1S,2S,3R,5S)-3-(4-methyl-7H-pyrrolo[2,3-d]pyrimidin-7-yl)-5-((5,6,7,8-tetrahydro-2,7-naphthyridin-1-yl)oxy)cyclopentane-1,2-diol]"
2,114 nM,"CN(c1ccnc(N)n1)[C@@H]1C[C@H]([C@H](O)c2ccc(F)c(F)c2)[C@@H](O)[C@H]1O [Example 39, (1R,2S,3R,5R)-3-[(2-aminopyrimidin-4-yl)(methyl)amino]-5-[(S)-(3,4-difluorophenyl)(hydroxy)methyl] cyclopentane-1,2-diol]"
3,> 200000 nM,"Cc1nccc(O[C@@H]2C[C@H](Oc3cccc4c3CNCC4)[C@@H](O)[C@H]2O)n1 [Example 158, (1S,2R,3R,5S)-3-((2-methylpyrimidin-4-yl)oxy)-5-((1,2,3,4-tetrahydroisoquinolin-8-yl)oxy)cyclopentane-1,2-diol]"
4,> 200000 nM,"N#Cc1cccc2c(N[C@@H]3C[C@H](C(O)c4ccc(F)c(F)c4)[C@@H](O)[C@H]3O)ncnc12 (single isomer, unassigned) [Example 29, 4-({(1R;2S;3R;4R)-4-[(3;4-difluorophenyl)(hydroxy)methyl]-2;3-dihydroxycyclopentyl}amino)quinazoline-8-carbonitrile]"
5,3580 nM,"Cc1cc(N(C)[C@@H]2C[C@H]([C@H](O)c3ccc(F)c(F)c3)[C@@H](O)[C@H]2O)ncn1 [Example 33, (1S,2R,3R,5R)-3-[(S)-(3,4-difluorophenyl)(hydroxy)methyl]-5-[methyl(6-methylpyrimidin-4-yl)amino] cyclopentane-1,2-diol]"
6,> 200000 nM,"Cc1cccc(CC(O)[C@H]2C[C@@H](n3ccc4c(C)ncnc43)[C@H](O)[C@@H]2O)n1 (stereo partly drawn) [Example 15, (1S,2R,3R,5R)-3-[1-hydroxy-2-(6-methylpyridin-2-yl)ethyl]-5-(4-methyl-7H-pyrrolo[2,3-d]pyrimidin-7-yl)cyclopentane-1,2-diol]"
7,11100 nM,"Cc1ncnc2c1ccn2[C@@H]1C[C@H](Oc2ccc(F)cc2O)[C@@H](O)[C@H]1O [Example 136, (1S,2S,3S,5R)-3-(4-fluoro-2-hydroxyphenoxy)-5-(4-methyl-7H-pyrrolo[2,3-d]pyrimidin-7-yl)cyclopentane-1,2-diol]"
8,> 200000 nM,"Cc1ncnc2c1ccn2[C@@H]1C[C@H](Oc2cccc3c2C(=O)NCCO3)[C@@H](O)[C@H]1O [Example 163, 6-(((1S,2S,3S,4R)-2,3-dihydroxy-4-(4-methyl-7H-pyrrolo[2,3-d]pyrimidin-7-yl)cyclopentyl)oxy)-3,4-dihydrobenzo[f][1,4]oxazepin-5(2H)-one]"
9,14 nM,"Cc1ncnc2c1ccn2[C@@H]1C[C@H](Oc2cc(-c3cc[nH]n3)cc3c2CNCC3)[C@@H](O)[C@H]1O [Example 171, (1S,2S,3S,5R)-3-((6-(1H-pyrazol-3-yl)-1,2,3,4-tetrahydroisoquinolin-8-yl)oxy)-5-(4-methyl-7H-pyrrolo[2,3-d]pyrimidin-7-yl)cyclopentane-1,2-diol]"
10,289 nM,"Cc1ncnc2c1ccn2[C@@H]1C[C@H](Cc2ccc(F)cc2)[C@@H](O)[C@H]1O [Example 58, (1S,2R,3S,5R)-3-(4-fluorobenzyl)-5-(4-methyl-7H-pyrrolo[2,3-d]pyrimidin-7-yl)cyclopentane-1,2-diol]"
11,3930 nM,"Cc1ncnc2c1ccn2[C@@H]1C[C@H](Oc2cccc3c2[C@@H](N)CC3)[C@@H](O)[C@H]1O [Example 141, (1S,2S,3S,5R)-3-(((S)-3-amino-2,3-dihydro-1H-inden-4-yl)oxy)-5-(4-methyl-7H-pyrrolo[2,3-d]pyrimidin-7-yl)cyclopentane-1,2-diol]"
12,266 nM,"CN(c1ncnc(N)n1)[C@@H]1C[C@H]([C@H](O)c2ccc(F)c(F)c2)[C@@H](O)[C@H]1O [Example 37, (1R,2S,3R,5R)-3-[(4-amino-1,3,5-triazin-2-yl)(methyl)amino]-5-[(S)-(3,4-difluorophenyl) (hydroxy)methyl]cyclopentane-1,2-diol]"
13,2120 nM,"CO[C@@H]1C[C@H](n2ccc3c(C)ncnc32)[C@@H](O)[C@H]1O [Example 61, (1R,2R,3R,5S)-3-methoxy-5-(4-methyl-7H-pyrrolo[2,3-d]pyrimidin-7-yl)cyclopentane-1,2-diol]"
14,180 nM,"Cc1ncnc2c1ccn2[C@@H]1C[C@H](Oc2nc(OC(C)C)c(F)c3c2CNCC3)[C@@H](O)[C@H]1O [Example 193, (1S,2S,3S,5R)-3-((4-fluoro-3-isopropoxy-5,6,7,8-tetrahydro-2,7-naphthyridin-1-yl)oxy)-5-(4-methyl-7H-pyrrolo[2,3-d]pyrimidin-7-yl)cyclopentane-1,2-diol]"
